Earlier results, collected in paper PMC4844938 (Molecules and Cells, 2016).

System: RANKL
Conditions: ref Ta et al., 2010

For “1-YC WNSDCECCYRR-13 (bicyclic or more) [L3-3]”, the “affinity for RANKL relative to OP3-4” value (previous work) is given as “higher affinity for RANKL as compared to OP3-4” and the Kd (read-out: Kd for RANKL, reported in previous work) is given as 17.3 µM.
